# From patent US20100158863A1, “TRIAZOLOANILINOPYRIMIDINE DERIVATIVES FOR USE AS ANTIVIRAL AGENTS” (ARROW THERAPEUTICS LIMITED, priority 2006, published 2010)
# Where two headings read alike, the source gives them in different places.
# Tests used:
# HCV replicon 1b (Huh-9B) = test: HCV replicon activity, luciferase detection on the replicon plate; format: cell-based, HCV genotype 1b; settings: Huh-9B replicon cells, luciferase signal
# Text: 1b replicon (Huh.7) described in Science 285, 110-113. • Huh-9B: liver cell line with persistent bicistronic HCV genotype 1b coding sequence: [I3891ucubineo—3-3′_ET] includes firefly luciferase-ubiquitin-neomycin phosphotransferase fusion protein and EMCV-IRES driven non-structural HCV (NS3 to NS5B) coding sequence including cell culture adaptive mutations E1202G, […] and K1846T (Lohmann et al, 2001).
# This assay is set up using all 96 wells of flat-bottomed 96-well plates. Plates are set up one day before addition of compounds. The assay then runs for 4 days with ELISA development taking place on the 5th day.
# Exponentially growing Huh-9B monolayers are washed with sterile PBS to remove serum and treated with trypsin to detach cells from the flask.
# (§1) Cells are suspended in growth media and counted using a haemocytometer. Duplicate 96 well plates are seeded with Huh-9B at a density of 10^4 cells/well in a total volume of 100 μl/well of growth medium without antibiotics as depicted below.
# (§2) One of the plates is an opaque white 96-well plate used for IC50 determination based on the luciferase signal (referred as replicon plate), the other one is a clear 96-well plate used for a parallel determination of drug toxicity by methylene blue staining (referred as tox plate). Wells G12 and H12 of the tox plate are left without cells to use as buffer alone background reading.
# Plates are then incubated at 37° C. in a 5% CO2 environment for 24 h to obtain a 90% confluent cell monolayer.
# (§3) Doubling dilutions of each compound are generated in a separate 96 high volume capacity round bottom plate to twice their initial concentration in the assay using growth medium without antibiotics.
# Five compounds (C1 to C5) are tested on each assay plate as illustrated below plus a control compound that is also included in each plate.
# (§4) Compounds are tested across an 8 point doubling dilution series. The initial dilution of each compound to be tested is 25 μM and 12.5 μM for the control compound.
# DMSO only wells (A1 and A2) at 1% provide the signal corresponding to maximal (100%) luciferase detection. […] The signal from the DMSO wells at 1% (maximal signal) constitutes the assay window.
# (§5) For each compound dilution on the 2×96-well dilution plate 100 μl are transferred using a multichannel pipette onto the replicon and tox plates mirror wells which contain […] of medium to obtain the desired final concentration.
# Media is tapped out from wells into Virkon and plates are washed once in warm PBS and tapped dry gently.
# For each well 20 μl of lysis buffer is added by multichannel pipette. Lysates are stable at this point for several hours.
# Luciferase assay buffer is placed it in the luminometer (Lmax, Molecular Devices).
# The M injector is primed with 4×300 μl of luciferase assay buffer. The plate to be analyzed is placed in the luminometer and […] of luciferase assay buffer injected automatically into one well followed by 4 seconds integration read out.
# After one second delay a second well is injected with 100 μl of luciferase assay buffer followed by 4 seconds integration read out and so forth until all 96 wells are analyzed.
# Once the reading is finished the luminometer injection system is washed with deionised water.
# The data is acquired using the SOFTmax for Lmax Pro software package.
# (§6) SOFTmax data files are exported as Excel or text files. A standard four parameters non-linear regression analysis of the data obtained from each compound is then used to calculate the IC50.
# (§7) In the above analysis all replicate wells are meaned. The % of control is then calculated for each concentration point as a percentage of the DMSO control wells.
# Huh-9B = test: Toxicity determination on the tox plate by methylene blue staining; format: cell-based; settings: Huh-9B cells, parallel tox plate
# Experimental: as §1, §2, §3, §4, §5
# Media is tapped out from wells into Virkon and plates tapped dry gently. To each well 100 μl of 0.5% solution of methylene blue in 50% methanol is added to all wells including blanks (G12 and H12). Plates are left at RT for a minimum of 1 h. Plates are then rinsed gently by immersing in a plastic box with water, tapped dry gently and left open until they are fully dry. Dye is solubilized adding 100 μl of 1% lauroylsarcosine to each well and shaking for 1 h at 37° C. Plates are read on the SpectraMax spectrophotometer at 620 nm wavelength using the SOFTmax Pro software package.
# as §6, §7
# HCV replicon 1b = test: ELISA, combined effect of HCV replication inhibitor with interferon αA; format: cell-based; settings: for IC50: Hepatitis C virus
# Text: ELISA Protocol as in Example 38
# The fractional inhibitory concentratin (FIC) can be used to identify a synergistic interaction.
Compound,IC50 (HCV replicon 1b (Huh-9B); Hepatitis C virus) [µM],Replicon TD50 (Huh-9B),"IC50 (HCV replicon 1b; compound alone, read-out: ELISA IC50 against HCV replicon 1b) [µM]",IC50 (HCV replicon 1b; read-out: IC50 of compound in combination) [µM],"fractional inhibitory concentration (FIC) (HCV replicon 1b; combination with interferon αA, FIC <0.5 = synergy)",IC50 (HCV replicon 1b (Huh-9B)) [µM]
"COc1ccc(-c2ccc3ncnc(Nc4ccc(-n5cncn5)cc4)c3c2)cc1OC [Example 10, [6-(3,4-Dimethoxy-phenyl)-quinazolin-4-yl]-(4-[1,2,4]triazol-1-yl-phenyl)-amine]",< 5,* (* <25 μM),0.2,≤ 0.067,0.336,
"COc1ncc(-c2ccc3ncnc(Nc4ccc(-n5cncn5)cc4)c3c2)cn1 [Example 16, [6-(2-Methoxy-pyrimidin-5-yl)-quinazolin-4-yl]-(4-[1,2,4]triazol-1-yl-phenyl)-amine]",< 5,** (** >25 μM),,,,
"c1csc(-c2ccc3ncnc(Nc4ccc(-n5cncn5)cc4)c3c2)c1 [Example 17, (6-Thiophen-2-yl-quinazolin-4-yl)-(4-[1,2,4]triazol-1-yl-phenyl)-amine]",< 5,** (** >25 μM),,,,
"Cc1csc(-c2ccc3ncnc(Nc4ccc(-n5cncn5)cc4)c3c2)c1 [Example 18, [6-(4-Methyl-thiophen-2-yl)-quinazolin-4-yl]-(4-[1,2,4]triazol-1-yl-phenyl)-amine]",< 5,** (** >25 μM),,,,
c1coc(-c2ccc3ncnc(Nc4ccc(-n5cncn5)cc4)c3c2)c1 [Example 19],,** (** >25 μM),,,,< 5
"CN(C)CCOc1ccc(-c2ccc3ncnc(Nc4ccc(-n5cncn5)cc4)c3c2)cc1F [Example 20, {6-[4-(2-Dimethylamino-ethoxy)-3-fluoro-phenyl]-quinazoline-4-yl}-(4-[1,2,4]triazole-1-yl-phenyl)amine]",< 5,* (* <25 μM),,,,
"Brc1ccc2ncnc(Nc3ccc(-n4cncn4)cc3)c2c1 [Example 21, (6-Bromo-quinazolin-4-yl)-(4-[1,2,4]triazol-1-yl-phenyl)-amine]",< 5,** (** >25 μM),,,,
"CN(C)CCN(C)CCOc1ccc(-c2ccc3ncnc(Nc4ccc(-n5cncn5)cc4)c3c2)cc1F [Example 22, N-(2-{2-Fluoro-4-[4-(4-[1,2,4]triazol-1-yl-phenylamino)-quinazolin-6-yl]-phenoxy}-ethyl)-N,N′,N′-trimethyl-ethane-1,2-diamine]",< 5,* (* <25 μM),,,,
"COc1ccc(-c2ccc3ncnc(Nc4ccc(-n5cncn5)cc4)c3c2)cc1OC(C)C [Example 23, [6-(3-Isopropoxy-4-methoxy-phenyl)-quinazolin-4-yl]-(4-[1,2,4]triazol-1-yl-phenyl)-amine]",< 5,* (* <25 μM),,,,
"CC(C)Oc1cc(-c2ccc3ncnc(Nc4ccc(-n5cncn5)cc4)c3c2)ccc1F [Example 24, [6-(4-Fluoro-3-isopropoxy-phenyl)-quinazolin-4-yl]-(4-[1,2,4]triazol-1-yl-phenyl)-amine]",< 5,** (** >25 μM),,,,
"Fc1cc(-c2ccc3ncnc(Nc4ccc(-n5cncn5)cc4)c3c2)ccc1OCCCN1CCCC1 [Example 25, {6-[3 fluoro-4-(3-pyrrolidin-1-yl-propoxy)-phenyl]-quinazoline-4-yl}-(4-[1,2,4]triazole-1-yl-phenyl)amine]",< 5,* (* <25 μM),,,,
"Fc1cc(-c2ccc3ncnc(Nc4ccc(-n5cncn5)cc4)c3c2)ccc1OCCCN1CCOCC1 [Example 26, {6-[3-fluoro-4-(3-morpholin-4-yl-propoxy)-phenyl]-quinazoline-4-yl}-(4-[1,2,4]triazole-1-yl-phenyl)amine]",< 5,* (* <25 μM),,,,
"COc1ccc(-c2ccc3ncnc(Nc4ccc(-n5cncn5)cc4C)c3c2)cc1OC [Example 27, [6-(3,4-Dimethoxy-phenyl)-quinazolin-4-yl]-(2-methyl-4-[1,2,4]triazol-1-yl-phenyl)-amine]",< 5,* (* <25 μM),,,,
"COc1ccc(-c2ccc3ncnc(Nc4ccc(-n5nc(C(=O)O)nc5C)cc4)c3c2)cc1OC [Example 29, 1-(4-{6-[3,4-Dimethoxy-phenyl]-quinazolin-4-ylamino}-phenyl)-5-methyl-1H-[1,2,4]triazole-3-carboxylic acid]",5 to 20,** (** >25 μM),,,,
"COc1ccc(-c2ccc3ncnc(Nc4ccc(-n5nc(C(=O)N(C)C)nc5C)cc4)c3c2)cc1OC [Example 30, 1-{-4-[6-(3,4-Dimethoxy-phenyl)-quinazolin-4-ylamino]-phenyl}-5-methyl-1H-[1,2,4]triazole-3-carboxylic acid dimethylamide]",< 5,* (* <25 μM),,,,
"CNC(=O)c1nc(C)n(-c2ccc(Nc3ncnc4ccc(-c5ccc(OCCOC)c(F)c5)cc34)cc2)n1 [Example 31, 1-(4-{6-[3-Fluoro-4-(2-methoxy-ethoxy)-phenyl]-quinazolin-4-ylamino}-phenyl)-5-methyl-1H-[1,2,4]triazole-3-carboxylic acid methylamide]",< 5,** (** >25 μM),,,,
"COCCOc1ccc(-c2ccc3ncnc(Nc4ccc(-n5nc(C(=O)N(C)C)nc5C)cc4)c3c2)cc1F [Example 32, 1-(4-{6-[3-Fluoro-4-(2-methoxy-ethoxy)-phenyl]-quinazolin-4-ylamino}-phenyl)-5-methyl-1H-[1,2,4]triazole-3-carboxylic acid dimethylamide]",< 5,* (* <25 μM),,,,
Cc1cc(-n2cncn2)ccc1Nc1ncnc2ccc(Br)cc12 [Example 33],,** (** >25 μM),,,,< 5
"COCCOc1ccc(-c2ccc3ncnc(Nc4ccc(-n5nc(C(=O)N6CCN(C)CC6)nc5C)cc4)c3c2)cc1F [Example 34, [1-(4-{6-[3-Fluoro-4-(2-methoxy-ethoxy)-phenyl]-quinazolin-4-ylamino}-phenyl)-5-methyl-1H-[1,2,4]triazole-3-yl]-(4-methyl-piperazin-1-yl)methanone]",< 5,** (** >25 μM),,,,
